Data as given in paper PMC11438102, “Modulation of cannabinoid receptor 2 alters neuroinflammation and reduces formation of alpha-synuclein aggregates in a rat model of nigral synucleinopathy” (Journal of Neuroinflammation, 2024).

What was measured:
[1] = format: in vivo; conditions: 6 mg/kg i.p. daily, ~2 h post-dose
Protocol: One week after surgery, animals were randomly selected to receive daily systemic injections of either SMM-189 (intraperitoneal (i.p.), 6 mg/kg, n = 12) or vehicle (i.p., n = 12) and followed for 8 weeks (Figs. 1; n = 2 rats per group were removed due to poor nigral targeting). […] Plasma was also collected at baseline, 4 and 8 weeks post-AAV-hAsyn injections and CSF collected prior to perfusion to measure levels of SMM-189.
Blood was collected from the tail vein at baseline and every 4 weeks post-AAV (~ 2 h post-treatment injection) for plasma to measure SMM-189 levels in low and high cohorts and for PBMCs to immunophenotype circulating immune cells in the high cohort animals. […] Tails were cleaned with ethanol and approximately 400μL of blood drawn from the lateral tail vein using a low dead space 25ga needle and syringe and blood immediately placed into an EDTA tube.
CSF was collected at endpoint from low cohort animals. […] A sterile pulled micropipettes attached to tubing and a syringe punctured into the cisterna magna and clean CSF was aspirated and collected in a 0.2mL Eppendorf and stored at -80°C.
A total of 50 µL aliquots of plasma or CSF were prepared by protein precipitation with 100 µL acetonitrile (spiked with the internal standard d^5-SMM-189) followed by centrifugation at 10,000g for 10 min at 4°C. Chromatographic separation of the supernatant was performed using a Zorbax SB-C18 3.5 μm 4.6 × 150 mm and a Shimadzu HPLC Nexera XR with Solvent Delivery Module LC-20ADXR, CTO-20AC prominence column oven (temperature 40 °C), a DGU-20A5R Degassing Unit, and a SIL-20ACXR autosampler. The aqueous mobile phase (A) was 95% water and 5% acetonitrile (B) was 100% acetonitrile.

[2] = tested on: CD206, YM1, TGFb, TNF, CB2 gene expression; assay: qPCR of immune markers in frontal cortex and PBMCs; format: in vivo; conditions: rat low cohort
Protocol: (§1) PBMCs were isolated from blood of low cohort rats at euthanasia (8 weeks) for qPCR analysis of immune genes and from blood of high cohort rats at baseline, 4 and 8 weeks after AAV2/5-human WT Asyn and evaluated with flow cytometry for a longitudinal immunophenotype assessment. Red blood cells were lysed using 1x RBC lysis buffer (Biolegend Cat#420301) for 5 min in the dark. Lysis buffer was neutralized by adding 1x HBSS (Gibco Cat#14175095). Cells were pelleted by centrifugation at 400g for 5 min, supernatant removed, and cells washed with HBSS. For the high cohort, cells were resuspended in 200μL of PBS and transferred to a 96-well v-bottom plate for flow cytometry staining. For low cohort, 10,000 cells were lysed in 600μL RLT lysis buffer (Qiagen Cat#79216) + 1% BME, further homogenized by centrifugation through a QiaShredder column (2 min at 21,130g). Lysate was then stored at -80°C and later processed for RNA extraction.
Total RNA was extracted from the frontal cortex and from PBMCs of low cohort animals and standardized across all samples and groups. In short, tissue was suspended in Trizol and homogenized with a TissueLyser (Retsch). Homogenate was incubated with chloroform and RNA separated by centrifugation of […] for 15 min at 4°C. RNA was further isolated with a RNAeasy mini kit (Qiagen). The RNA (1 µg) was then reverse transcribed to cDNA and analyzed with primers (Integrated DNA Technologies) for pro-inflammatory and anti-inflammatory immune markers and CB2 (Table 1) by qRT-PCR using protocols previously published. Resulting threshold cycle (Ct) values were analyzed by the 2-ΔΔCt method using the AAV2/5-hαsyn + vehicle as the control group and normalized to GAPDH for PBMCs and HPRT1 for frontal cortex as the housekeeping genes.

PBMCs = assay: Multicolor flow cytometry of PBMCs (high cohort); format: in vivo, rat
Protocol: An additional cohort of rats (termed “high cohort”) was evaluated to determine effects of SMM-189 on immune cell populations in the brain, resident or infiltrating, and the periphery as measured by flow cytometry (Fig. 1). To ensure infiltrating peripheral immune cells, rats were stereotaxically injected with a higher titer of AAV2/5-human WT Asyn (4.6 × 10^12 vg/mL) and underwent an identical drug treatment timeline with animals sacrificed at 4 (SMM-189: n = 5; vehicle: n = 6) and 8 weeks (SMM-189: n = 7; vehicle: n = 7). At sacrifice, animals were deeply anesthetized with euthasol (i.p., 150 mg/kg) and rapid decapitation performed using a sharp guillotine. Brains were collected at endpoints, and brain immune cells isolated and evaluated using multicolor flow cytometry. Additionally, blood was collected at baseline, 4 and 8 weeks (SMM-189: n = 13; vehicle: n = 13) after stereotaxic surgery for PBMCs isolation to immunophenotype using flow cytometry and for plasma evaluation of SMM-189.
as §1
Peripheral and central immune cell staining was performed similarly as previously published protocols. In brief, immune cells were washed and resuspended in PBS, then incubated for 30 min at room temperature in LIVE/DEAD Fixable Red Dead cell stain (ThermoFisher Scientific Cat#L23102; 1:2000). Following two washes in PBS, Fc receptors were blocked with anti-rat CD32 Fc block diluted 1:100 in FACS buffer (1mM EDTA and 0.1% sodium azide in PBS) for 15 min at 4°C. PBMCs were stained for separate myeloid and lymphoid panels and brain immune cells stained with an antibody panel to identify microglia, monocytes and lymphocytes (Table S1-S3). Fluorophore conjugated antibodies diluted with FACS buffer were incubated at 4 °C for 20 min. Cells stained for surface myeloid markers were fixed in 1% PFA for 25 min and washed in FACS.
PBMCs stained with lymphoid panel were further probed intracellularly for transcriptional marker Foxp3 to label […] T cells. […] Then washed and resuspended in FACs buffer. All samples had 10uL of AccuCheck Counting beads (ThermoFisher Cat#PCB100) added to final suspension and cells were run on a LSRII Instrument (BD Biosciences, Franklin Lakes, NJ) with FACSDiva software (BD Biosciences). Results were analyzed using FlowJo 10.8.1 software and brain immune populations of monocytes (classical and non-classical), lymphocytes (CD4 + and CD8+) or microglia and PBMC populations defined by specific strategies (Figure S1-S3).
For PBMC analysis, raw frequencies were normalized across serial runs against vehicle-treated values using the following equation: Raw frequency / (average vehicle frequencies of specific run / average baseline frequencies). For brain immune cell analysis of 8 weeks, samples could not be collected and ran the same day so frequencies were normalized across treatment group at each timepoint using the following equation: raw frequency / (average treatment frequency of specific run 1 / average treatment frequency of specific run 2). […]

RAW264.7 macrophages = assay: Phagocytosis assay with pHrodo green E. coli bioparticles; format: cell-based; conditions: vs vehicle; for integrated density of GFP (phagocytosis of E. coli bioparticles): 100ng/mL LPS; for phagocytosis of E. coli bioparticles: 1 μg/mL LPS
Protocol: The RAW264.7 macrophage cells (ATCC Cat# TIB-71, RRID: CVCL_0493) were grown in sterile media which consisted of DMEM high glucose, 10% FBS, 2mM L-glutamine, 1x Pen-strep and 1x sodium pyruvate in a humidified 5% CO2 incubator at 37°C. RAW264.7 were maintained in […] tissue culture flasks and plated at a density of 1 × 10^4 cells in triplicate in 96-well plates for assays. Cells were stimulated with either lipopolysaccharide (LPS O111:B4; Sigma Cat#L2630) at 100ng/mL or 1000ng/mL (750EU/mL or 7500 EU/mL, respectively). One hour prior to this stimulation the cells were pre-treated with the CB2 inverse agonist SMM-189 at 3μM or 7 μm or its vehicle. Specifically for cell culture experiments, SMM-189 was formulated with 40% ethanol (v/v), 20% tween-20 (v/v) and 40% saline (v/v). A phagocytosis assay was conducted 24 h after LPS.
The phagocytosis assay was performed using pHrodo green E. coli bioparticles (Invitrogen Cat# P35366) according to the manufacturer’s instructions. Five images per well were then collected every 30 min for 24 h on an EVOS M7000 microscope (Invitrogen, ThermoFisher Scientific). The cells were maintained for this duration using an on-stage incubator kept at 37°C and 5% CO2. Analysis of the collected images was performed using EVOS Celleste software (version 5.0), which counted the cells and then measured the integrated optical density of fluorescence within each well over the 24-hour time course. Analysis was conducted on the average integrated optical density across triplicate wells. Results were consistent across duplicate experimental replicates.

[3] = frontal cortex, relative to vehicle

In the case of `O=C(c1ccccc1)c1cc(O)c(-c2cc(Cl)cc(Cl)c2)c(O)c1` [SMM-189], the “SMM-189 plasma levels compared to vehicle” value ([1]; rat high cohort, 4 and 8 weeks) is reported as “increased”, the “level of plasma SMM-189 compared to vehicle-treated rats” value ([1]; rat low cohort, 4 and 8 weeks) is reported as “Significant increases” and the “Levels of SMM-189 in the CSF, average ± SEM” value ([1]; rat low cohort, endpoint) is reported as 0.44 ± 0.22 ng/mL. The TGFβ gene expression ([2]; PBMCs, relative to vehicle) was “increased”, the TNF transcript ([2]; endpoint PBMCs, relative to vehicle) was “decreased” and the CB2 gene expression ([2]; frontal cortex and PBMCs, between groups) was “not different”. For the same compound, the CD206 gene expression [2, 3] was “increased”, the YM1 gene expression [2, 3] was “increased” and the “MHCII MFI on CD43-His48+ classical monocytes” value (PBMCs; 4 weeks, vs control) was “increased”. For the same compound, the “frequencies of Tregs (CD4+Foxp3+; CD4+Foxp3+CD25+)” value (PBMCs; 8 weeks compared to own baseline) was “elevated”, the granulocytes (PBMCs; 8 weeks, vs vehicle) was “decreases” and the “wound-healing non-classical monocytes (CD43+)” value (PBMCs; 8 weeks, vs vehicle) was “increases”. The “Lymphocyte frequencies of CD4 or CD8 populations (or the CD4 to CD8 ratio)” value (PBMCs; between treatments) was “did not reveal significant differences”, the “counts of both CD4 and CD8+ T cells” value (PBMCs; vs vehicle) was “decreased” and the “circulating classically-activated monocytes (CD43-His48+)” value (PBMCs; weeks 4 and 8, vs vehicle) was “reduced”. For the same compound, the “integrated density of GFP (phagocytosis of E. coli bioparticles)” value (RAW264.7 macrophages; pre-treatment 3 μm, p = 0.0024) was “significantly increased”, the “integrated density of GFP (phagocytosis of E. coli bioparticles)” value (RAW264.7 macrophages; pre-treatment 7 μm, p < 0.0001) was “significantly increased” and the “phagocytosis of E. coli bioparticles” value (RAW264.7 macrophages; 3 μm) was “intensified”. For the same compound, the “phagocytosis of E. coli bioparticles” value (RAW264.7 macrophages; 7 μm) was “intensified”.
